Results published in patent US6147076A, “Analogues of N-acetylardeemin, method of preparation and uses thereof” (priority 1996, dated 2000).
Several values for one entry are separate records, joined by “and”; a condition that tells them apart may be missing. Identical values can stand only once. Like-named read-outs stand apart in the source and are kept apart here.

Tests used:
DC-3F hamster lung cells = assay: Cytotoxicity toward DC-3F hamster lung cells; details: Mesocricetus auratus, DC3F, read-out: IC50 for inhibiting cell growth, Table 7, DC-3F
cultured macrophages = details: read-out: IC50, inhibition of cholesterol ester formation; cited from earlier work
[1] = target: acyl CoA:cholesterol acyltransferase (ACAT); details: read-out: Ki (with respect to oleoyl-CoA); cited from earlier work
DC-3F/ADII cells = assay: cells; details: Mesocricetus auratus, DC3F, read-out: IC50 for inhibiting cell growth
CCRF-CEM cells [2] = assay: Cytotoxicity / growth inhibition of CCRF-CEM leukemic cells; details: Homo sapiens, wild type CCRF-CEM
[3] = test system: vinblastine-resistant CCRF-CEM cells (CCRF-CEM/VBL100); assay: Two drug combination study of vinblastine and 5-N-acetylardeemin on vinblastine-resistant CCRF-CEM, 72 hr, XTT assay; assay type: cell-based, human
Excerpt: Vinblastine-resistant CCRF-CEM Cell Line at 72-HR Exposure Time.
Based on XTT Assay. (large-scale study)

CCRF-CEM/VBL cells = assay: IC50 of vinblastine in CCRF-CEM/VBL with/without MDR reversing agent; assay type: cell-based, human
P388/0 tumor = assay: Combination therapy of adriamycin, vinblastine and des-Me-N-acetyl-ardeemin in B6D2F1 mice bearing P388/0 tumor; details: VBL 3.0 mg/kg
Method: ^a Male BDF mice were inoculated with P388/O, 10^6 cell/mouse,
i.p. on day 0; and started treatment on day 1, i.p., Q5Dx5, besides mice
with dose VBL 3.0 and VBL 3.0 mg/kg + DMNAA 50 mg/kg, only one injection
i.p., on day 1. There were five mice at every dose and ten in the control

CCRF-CEM/VM-1 cells [4] = details: IC50 of VBL, CCRF-CEM/VM-1 to CCRF-CEM
CCRF-CEM cells [5] = assay: IC50 of vinblastine in CCRF-CEM with/without MDR reversing agent; assay type: cell-based; details: Homo sapiens, agent concentration added given in Table 6B, read-out: IC50 of VBL in the presence of reversing agent (A)
[6] = test system: vinblastine-resistant CCRF-CEM cells (CCRF-CEM/VBL100); assay: Two drug combination study of vinblastine and 5-N-acetylardeemin on vinblastine-resistant CCRF-CEM, 72 hr, XTT assay; assay type: cell-based, human; parameters: dose of drug at FA (drug alone): unit not given here; details: for Dose reduction index / dose of drug at FA (drug alone): Table 3
CCRF-CEM cells [7] = assay: Two drug combination study of vinblastine and 5-N-acetylardeemin on CCRF-CEM, 72 hr, XTT assay; assay type: cell-based; details: Homo sapiens, Table 2, drug alone, read-out: Dm (median-effect concentration)
Excerpt: CCRF-CEM Cell Line at 72-HR Exposure Time. Based on XTT

CCRF-CEM/VBL100 cells = details: human, ccrf-cem/vbl100 vs ccrf-cem
CCRF-CEM/VM-1 cells [8] = assay: cells; details: Homo sapiens, read-out: IC50 of VBL in the presence of reversing agent (C)

SMILES: C=CC(C)(C)C12Nc3ccccc3C1(O)CC1C(=O)N3C(CC4(O)c5ccccc5NC34C(C)(C)C=C)C(=O)N12 (stereo not shown) [Gypsetin]
- IC50 (DC-3F hamster lung cells): 3780 nM
- IC50 (cultured macrophages): 650 nM
- Ki [1]: 5500 nM
- IC50 (DC-3F/ADII cells): 2250 nM

SMILES: CC[C@]1(O)C[C@@H]2CN(CCc3c([nH]c4ccccc34)[C@@](C(=O)OC)(c3cc4c(cc3OC)N(C)[C@H]3[C@@](O)(C(=O)OC)[C@H](OC(C)=O)[C@]5(CC)C=CCN6CC[C@]43[C@@H]65)C2)C1 [Vinblastine]
- IC50 (CCRF-CEM cells [2]): 1.7 nM
- dose reduction in combination ([3]; 1:2000 ratio, at 98.4% inhibition): 41 fold
- IC50 ([3]; Homo sapiens, CCRF-CEM, Table 4 (large-scale study), drug alone, read-out: Dm (median-effect concentration)): 393 nM
- IC50 (CCRF-CEM/VBL cells; Homo sapiens, CCRF-CEM, agent concentration added given in Table 6B, read-out: IC50 of VBL in the presence of reversing agent (B)): 832 nM
- (b)/(a) (CCRF-CEM/VBL cells; IC50 of VBL, CCRF-CEM/VBL to CCRF-CEM): 761
- % ILS (P388/0 tumor; one injection): +64%
- Days survived (P388/0 tumor; one injection, individual mice 1-5, listed as VBL): 5.0 days and 6.0 days and 9.5 days and 15.5 days and 16.0 days
- MST (P388/0 tumor; one injection, toxic deaths excluded): 13.67 days
- deaths of toxicity (P388/0 tumor; day 5 and 6): Two mice died of toxicity of drug
- (C)/(A) (CCRF-CEM/VM-1 cells [4]): 0.54
- IC50 (CCRF-CEM cells [5]): 0.83 nM
- IC50 ([6]; Homo sapiens, CCRF-CEM, Table 3, drug alone, read-out: Dm (median-effect concentration)): 371 nM
- Dose reduction index ([6]; FA .9843): 41.85
- dose of drug at FA (drug alone) ([6]; FA .9843): 2.092
- Dose reduction index ([6]; FA .9861): 22.03
- dose of drug at FA (drug alone) ([6]; FA .9861): 2.203
- Dose reduction index ([6]; FA .9898): 10.05
- dose of drug at FA (drug alone) ([6]; FA .9898): 2.512
- IC50 (CCRF-CEM cells [7]): 1.68 nM
- resistance of CCRF-CEM/VBL100 compared with CCRF-CEM (CCRF-CEM/VBL100 cells): 220 fold
- IC50 (CCRF-CEM/VM-1 cells [8]): 0.45 nM
